Laboratory results taken from article PMC4310624 (Biochemistry, 2014).

How the values were obtained:
class A or C enzymes = conditions: ref unpublished screening work, Bethel and Bonomo; cited from earlier work
[1] = system: E. coli DH10B pBCSK control; assay: Disc diffusion assay, control strain; assay type: cell-based, Escherichia coli; conditions: cephalothin 30 μg and 30 μg of each inhibitor, 37 °C, 18 h
[2] = system: E. coli DH10B pBCSK SHV-1; assay: Disc diffusion assay, SHV-1 expressing strain; assay type: cell-based, Escherichia coli; conditions: for zone size of cephalothin combined with the inhibitor: strain expressing SHV-1
SHV-1 = target: T1, SHV-1 (Klebsiella pneumoniae, UniProt P0AD64); conditions: SHV-1, E/I = 1:10, nitrocefin assay
T1 sequence (P0AD64 22-286): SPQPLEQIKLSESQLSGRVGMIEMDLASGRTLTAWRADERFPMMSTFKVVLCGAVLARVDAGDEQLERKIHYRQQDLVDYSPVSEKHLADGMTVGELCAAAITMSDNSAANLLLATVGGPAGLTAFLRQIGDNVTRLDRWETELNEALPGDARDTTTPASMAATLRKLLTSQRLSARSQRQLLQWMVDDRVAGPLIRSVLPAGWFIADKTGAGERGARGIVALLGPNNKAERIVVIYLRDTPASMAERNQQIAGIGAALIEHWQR

[3] = Base hydrolysis in 1 M NaOH followed by Raman spectroscopy; assay type: physicochemical

CC1(C)[C@H](C(=O)O)N2C(=O)[C@@H](CO)[C@H]2S1(=O)=O [6α-(hydroxymethyl)penicillanic acid sulfone]
inhibition in the IC50 or MIC assays (class A or C enzymes): did not show any inhibition

CC(=O)OCC1=C(C(=O)O)N2C(=O)[C@@H](NC(=O)Cc3cccs3)[C@H]2SC1 [cephalothin]
zone diameter [1]: 34 mm | zone diameter ([2]; cephalothin 30 μg and 30 μg of each inhibitor, 37 °C, 18 h): 6 mm

CC1(C)[C@H](C(=O)O)N2C(=O)C[C@H]2S1(=O)=O [sulbactam]
enzyme activity against nitrocefin after reaction with inhibitor (SHV-1): remained fully active | zone size of cephalothin combined with the inhibitor [2]: 10 mm | time for conversion of imine to cis-enamine ([3]; 1 M NaOH, Raman, all imine converted): 60 min | time to hydrolysis to imine (lactam ring opening, imine maximum) ([3]; 1 M NaOH, room temperature, Raman): less than 3 min | time for iminium ion conversion to cis-enamine ([3]; base hydrolysis, as stated in abstract): 1 h

C[C@]1(Cn2ccnn2)[C@H](C(=O)O)N2C(=O)C[C@H]2S1(=O)=O [tazobactam]
zone size of cephalothin combined with the inhibitor [2]: 16 mm
